Results as given in ChEMBL document CHEMBL5385901, “Drug repurposing of propafenone to discover novel anti-tumor agents by impairing homologous recombination to delay DNA damage recovery of rare disease conjunctival melanoma” (Eur J Med Chem, 2023).
Active and inactive are the calls of the source. No cut-off for these calls is given here.

Tests used:
[1] = Toxicity in immunodeficient NCG mouse xenografted with human CRMM-1 cells assessed as change in serum urea level at 10 to 20 mg/kg, ip for 28 days administered five times per week; assay type: organism-based; details: in vivo, 672 h, dose 10-20 mg/kg, time 28 day
[2] = Toxicity in immunodeficient NCG mouse xenografted with human CRMM-1 cells assessed as change in serum AST level at 10 to 20 mg/kg, ip for 28 days administered five times per week; assay type: organism-based; details: in vivo, 672 h, dose 10-20 mg/kg, time 28 day
CRMM-1 [3] = experiment: Antitumor activity against human CRMM-1 cells xenografted in immunodeficient NCG mouse assessed as tumor growth suppression at 20 mg/kg, ip for 28 days administered five times per week relative to control; assay type: functional; details: time 28 day
[4] = Toxicity in immunodeficient NCG mouse xenografted with human CRMM-1 cells assessed as change in serum ALT level at 10 to 20 mg/kg, ip for 28 days administered five times per week; assay type: organism-based; details: in vivo, 672 h, dose 10-20 mg/kg, time 28 day
CRMM-1 [5] = experiment: Antitumor activity against human CRMM-1 cells xenografted in immunodeficient NCG mouse assessed as mean tumor volume at 10 mg/kg, ip for 28 days administered five times per week (reference value: 540 mm3); assay type: functional; details: time 28 day
[6] = Toxicity in immunodeficient NCG mouse xenografted with human CRMM-1 cells assessed as pathomorphological change in kidney at 10 to 20 mg/kg, ip for 28 days administered five times per week by H and E staining based analysis; assay type: organism-based; details: in vivo, 672 h, dose 10-20 mg/kg, time 28 day
CRMM-1 [7] = experiment: Antitumor activity against human CRMM-1 cells xenografted in immunodeficient NCG mouse assessed as tumor growth suppression at 10 mg/kg, ip for 28 days administered five times per week relative to control; assay type: functional; details: time 28 day
[8] = Toxicity in immunodeficient NCG mouse xenografted with human CRMM-1 cells assessed as body weight loss at 10 to 20 mg/kg, ip for 28 days administered five times per week; assay type: organism-based; details: in vivo, 672 h, dose 10-20 mg/kg, time 28 day
[9] = Toxicity in immunodeficient NCG mouse xenografted with human CRMM-1 cells assessed as pathomorphological change in liver at 10 to 20 mg/kg, ip for 28 days administered five times per week by H and E staining based analysis; assay type: organism-based; details: in vivo, 672 h, dose 10-20 mg/kg, time 28 day
CRMM-1 [10] = experiment: Antitumor activity against human CRMM-1 cells xenografted in immunodeficient NCG mouse assessed as mean tumor volume at 20 mg/kg, ip for 28 days administered five times per week (reference value: 540 mm3); assay type: functional; details: time 28 day
[11] = Toxicity in immunodeficient NCG mouse xenografted with human CRMM-1 cells assessed as change in serum CREA level at 10 to 20 mg/kg, ip for 28 days administered five times per week; assay type: organism-based; details: in vivo, 672 h, dose 10-20 mg/kg, time 28 day
CRMM-1 [12] = experiment: Induction of apoptosis in human CRMM-1 cells at 40 uM measured after 48 hrs by DAPI/Annexin-V-PE staining based flow cytometry relative to control; assay type: functional
[13] = Cytotoxicity against human CM-AS16 cells assessed as cell growth inhibition incubated for 72 hrs by CCK8 assay; assay type: functional, cell-based; details: CM-AS16, 72 h
[14] = Antiproliferative activity against human CM-AS16 cells assessed as cell growth inhibition incubated for 72 hrs by CCK8 assay; assay type: functional, cell-based; details: CM-AS16, 72 h
[15] = Cytotoxicity against human CM2005.1 cells assessed as cell growth inhibition incubated for 72 hrs by CCK8 assay; assay type: functional, cell-based; details: CM2005.1, 72 h
CRMM-1 [16] = experiment: Antiproliferative activity against human CRMM-1 cells assessed as cell growth inhibition incubated for 72 hrs by CCK8 assay; assay type: functional, cell-based; details: CRMM-1, 72 h
CRMM-1 [17] = experiment: Cytotoxicity against human CRMM-1 cells assessed as cell growth inhibition incubated for 72 hrs by CCK8 assay; assay type: functional, cell-based; details: CRMM-1, 72 h
[18] = Cytotoxicity against human PIG1 cells at 20 uM incubated for 72 hrs by CCK8 assay relative to control; assay type: toxicity, cell-based; details: read-out: INH
[19] = Antiproliferative activity against human PIG1 cells assessed as cell growth inhibition incubated for 72 hrs by CCK8 assay; assay type: toxicity, cell-based
CRMM-2 [20] = experiment: Cytotoxicity against human CRMM-2 cells assessed as cell growth inhibition incubated for 72 hrs by CCK8 assay; assay type: functional, cell-based; details: CRMM-2, 72 h
CRMM-1 [21] = experiment: Inhibition of cell migration in human CRMM-1 cells assessed as migration rate at 3 uM measured after 72 hrs by wound healing assay (reference value: 70 %); assay type: functional; design: scale not given: the % may be the effect or the level left
CM-AS16 [22] = experiment: Effect on Fanconi anemia pathway in human CM-AS16 cells harboring BRAF mutation at 20 uM by KEGG analysis; assay type: functional, cell-based
CM-AS16 [23] = experiment: Effect on DNA integrity checkpoint genes in human CM-AS16 cells harboring BRAF mutation at 20 uM by GO enrichment analysis; assay type: functional, cell-based
[24] = Inhibition of homologous recombination in human CRMM-1 cells at 10 uM incubated for 12 hrs by real-time PCR analysis relative to control; assay type: functional
[25] = Antiproliferative activity against human HL7702 cells assessed as cell growth inhibition incubated for 72 hrs by CCK8 assay; assay type: toxicity, cell-based; details: HL7702 (L02) cells
[26] = Antiproliferative activity against human CM2005.1 cells assessed as cell growth inhibition incubated for 72 hrs by CCK8 assay; assay type: functional, cell-based; details: CM2005.1, 72 h
CRMM-1 [27] = experiment: Induction of apoptosis in human CRMM-1 cells at 0.3 to 3 uM measured after 48 hrs by DAPI/Annexin-V-PE staining based flow cytometry; assay type: functional, cell-based; details: dose 0.3-3 µM
CRMM-2 [28] = experiment: Antiproliferative activity against human CRMM-2 cells assessed as cell growth inhibition incubated for 72 hrs by CCK8 assay; assay type: functional, cell-based; details: CRMM-2, 72 h
CM-AS16 [29] = experiment: Effect on DNA repair genes in human CM-AS16 cells harboring BRAF mutation at 20 uM by GO enrichment analysis; assay type: functional, cell-based

For Cl.Cl.O=C(CCCc1ccccc1)c1c(OCCCN2CCNCC2)ccc2ccccc12, the Activity [1] was “Non-Toxic”, the Activity [2] was “Non-Toxic” and the Activity (CRMM-1 [3]) was 33%. The Activity [4] was “Non-Toxic”, the Activity (CRMM-1 [5]) was 390 mm3 and the Activity [6] was “Non-Toxic”. The Activity (CRMM-1 [7]) was 21%, the Activity [8] was “Non-Toxic” and the Activity [9] was “Non-Toxic”. The Activity (CRMM-1 [10]) was 340 mm3 and the Activity [11] was “Non-Toxic”.
With CCCNCC(O)COc1ccccc1C(=O)CCc1ccccc1 (centres undefined) [PROPAFENONE] the Activity (CRMM-1 [12]) was 80%, the IC50 [13] was 13.7 µM and the IC50 [14] was 13.7 µM. For the same compound, the IC50 [15] was 48.3 µM, the IC50 (CRMM-1 [16]) was 24.7 µM and the IC50 (CRMM-1 [17]) was 24.7 µM. It also gave a cytotoxicity at 72 h, 20 µM [18] of 26%, an IC50 at 72 h [19] of 56 µM and an IC50 (CRMM-2 [20]) of 13.4 µM. For the same compound, the Activity (CRMM-1 [21]) was 58%, the Activity (CM-AS16 [22]) was “Active” and the Activity (CM-AS16 [23]) was “Active”. It also gave an inhibition at 10 µM [24] of 56.9%, an IC50 at 72 h [25] of 48.2 µM and an IC50 [26] of 48.3 µM. The Activity (CRMM-1 [27]) was “Active”, the IC50 (CRMM-2 [28]) was 13.4 µM and the Activity (CM-AS16 [29]) was “Active”.
